Assay results reported in patent publication US9260429B2, “Pyrido[3,4-B]indoles and methods of use” (Medivation Technologies, Inc., priority 2008, dated 2016).

Experiments:
[1] = target: T1, human recombinant dopamine D2L receptor (Homo sapiens, UniProt P14416); test: Dopamine D2L radioligand binding ([3H]Spiperone); conditions: 2 h, 1 μM ligand conc.; read-out: Percent Inhibition of ligand binding Dopamine (1 μM ligand conc.) D2L
T1 construct: expressed in transfected cells; host or cells: CHO cells
Method in brief: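 CHO-expressed receptor in 50 mM Tris-HCl pH 7.4 with ascorbic acid, 0.001% BSA, 150 mM NaCl; 0.16 nM [3H]spiperone, 120 min at 25 °C; nonspecific binding with haloperidol.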

[2] = target: T2, human recombinant histamine H1 receptor (Homo sapiens, UniProt P35367); test: Histamine H1 radioligand binding ([3H]Pyrilamine); conditions: 1 μM; read-out: Binding data (Percentage Inhibition) Histamine Binding (1 μM) H1
T2 construct: expressed in transfected cells; host or cells: CHO cells
Method in brief: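 Binding to the human recombinant histamine H1 receptor, expressed in CHO cells, was measured in a modified Tris-HCl buffer (50 mM Tris-HCl, pH 7.4, 2 mM MgCl2, 100 mM NaCl, 250 mM Sucrose). Compounds were incubated with 1.2 nM [3H]Pyrilamine for 180 minutes at 25° C, with 1 μM pyrilamine defining non-specific binding. After filtration and washing, filter counts gave percent inhibition of specific binding.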

[3] = target: T3, human recombinant serotonin (5-Hydroxytryptamine) 5-HT6 receptor (Homo sapiens, UniProt P50406); test: Serotonin 5-HT6 radioligand binding ([3H]LSD); conditions: 2 h; read-out: Percent Inhibition of ligand binding Serotonin (1 μM ligand concentration) 5-HT6
T3 construct: expressed in transfected cells; host or cells: human HeLa cells
Method in brief: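 Human 5-HT6 receptor expressed in HeLa cells, in Tris-HCl pH 7.4 with 150 mM NaCl, ascorbic acid and BSA. Compounds at 1 μM or lower (1% DMSO) incubated 120 min at 37° C with 1.5 nM [3H]LSD. Non-specific binding defined with serotonin; filter counting gives % inhibition of specific binding.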

[4] = target: T4, human recombinant serotonin (5-Hydroxytryptamine) 5-HT2C receptor (Homo sapiens, UniProt P28335); test: Serotonin 5-HT2C radioligand binding ([3H]Mesulergine); conditions: for inhibition at 1 µM: 1 h, read-out: Percent Inhibition of ligand binding Serotonin (1 μM ligand concentration) 5-HT2C
T4 construct: expressed in transfected cells; host or cells: CHO-K1 cells
T4 sequence (P28335 33-458): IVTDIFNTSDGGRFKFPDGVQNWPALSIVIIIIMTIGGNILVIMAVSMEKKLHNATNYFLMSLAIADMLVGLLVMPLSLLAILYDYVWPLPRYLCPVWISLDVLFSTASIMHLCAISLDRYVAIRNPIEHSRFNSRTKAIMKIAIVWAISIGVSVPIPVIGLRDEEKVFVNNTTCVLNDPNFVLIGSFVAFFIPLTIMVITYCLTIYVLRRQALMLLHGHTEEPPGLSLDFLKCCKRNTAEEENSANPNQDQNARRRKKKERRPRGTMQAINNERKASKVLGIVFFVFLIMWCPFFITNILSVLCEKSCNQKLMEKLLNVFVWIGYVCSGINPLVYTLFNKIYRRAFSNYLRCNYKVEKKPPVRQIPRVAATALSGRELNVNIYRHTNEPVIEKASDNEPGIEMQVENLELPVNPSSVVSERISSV
Method: Compounds of the invention were incubated with 1 nM [^3H]Mesulergine for 60 minutes at 25° C. Non-specific binding was estimated in the presence of 1 μM Mianserin. Receptor proteins were filtered and washed, the filters were then counted to determine [^3H]Mesulergine specifically bound. […] Biochemical assay results are presented as the percent inhibition of specific binding in Table 5.

T2 sequence (P35367 whole entry): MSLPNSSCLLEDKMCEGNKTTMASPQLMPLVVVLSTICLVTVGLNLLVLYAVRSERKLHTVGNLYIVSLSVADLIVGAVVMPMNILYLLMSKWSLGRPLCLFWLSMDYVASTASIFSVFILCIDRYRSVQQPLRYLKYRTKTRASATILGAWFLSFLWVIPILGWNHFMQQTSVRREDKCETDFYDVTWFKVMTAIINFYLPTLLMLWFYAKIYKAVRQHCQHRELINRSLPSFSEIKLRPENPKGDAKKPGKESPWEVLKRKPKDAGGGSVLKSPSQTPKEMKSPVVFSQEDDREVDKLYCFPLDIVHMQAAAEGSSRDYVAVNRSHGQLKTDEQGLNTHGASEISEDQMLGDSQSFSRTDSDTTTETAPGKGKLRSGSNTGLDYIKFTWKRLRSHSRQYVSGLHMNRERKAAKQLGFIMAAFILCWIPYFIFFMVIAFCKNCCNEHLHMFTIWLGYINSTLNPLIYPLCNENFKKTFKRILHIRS
T1 sequence (P14416 whole entry): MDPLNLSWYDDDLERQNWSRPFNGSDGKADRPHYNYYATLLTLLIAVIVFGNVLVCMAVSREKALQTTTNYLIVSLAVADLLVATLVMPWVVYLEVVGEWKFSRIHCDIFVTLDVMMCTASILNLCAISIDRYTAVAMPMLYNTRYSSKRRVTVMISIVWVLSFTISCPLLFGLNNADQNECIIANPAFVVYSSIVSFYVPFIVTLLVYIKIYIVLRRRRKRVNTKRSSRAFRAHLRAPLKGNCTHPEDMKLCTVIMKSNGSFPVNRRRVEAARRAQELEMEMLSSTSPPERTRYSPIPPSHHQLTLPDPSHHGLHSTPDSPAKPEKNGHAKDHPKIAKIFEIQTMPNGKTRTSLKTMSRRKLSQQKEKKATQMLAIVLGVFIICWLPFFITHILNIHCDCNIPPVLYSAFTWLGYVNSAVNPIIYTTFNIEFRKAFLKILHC
T3 sequence (P50406 whole entry): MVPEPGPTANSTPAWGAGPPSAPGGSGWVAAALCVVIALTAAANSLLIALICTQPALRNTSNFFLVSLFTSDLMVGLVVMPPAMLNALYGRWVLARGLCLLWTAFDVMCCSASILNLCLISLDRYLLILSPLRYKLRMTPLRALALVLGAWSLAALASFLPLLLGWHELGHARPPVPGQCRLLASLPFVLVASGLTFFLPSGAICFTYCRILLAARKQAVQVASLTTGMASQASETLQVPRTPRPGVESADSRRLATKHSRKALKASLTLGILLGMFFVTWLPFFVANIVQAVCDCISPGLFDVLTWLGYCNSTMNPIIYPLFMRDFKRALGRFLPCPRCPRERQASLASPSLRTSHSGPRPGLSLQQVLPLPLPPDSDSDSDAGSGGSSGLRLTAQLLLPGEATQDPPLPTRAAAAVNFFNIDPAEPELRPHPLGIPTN

Structure (SMILES)	inhibition at 1 µM [1] [%]	inhibition at 1 µM [2] [%]	inhibition at 1 µM [3] [%]	inhibition at 1 µM [4] [%]	Percent Inhibition of ligand binding Serotonin (1 μM ligand concentration) 5-HT2C ([4]; 1 μM ligand concentration) [%]
C/C(=C\n1c2c(c3cc(Cl)ccc31)CCN(C)C2C)c1ccc(Cl)cc1 (stereo not shown) [Compound 99, 6-chloro-9-(2-(4-chlorophenyl)prop-1-enyl)-1,2-dimethyl-2,3,4,9-tetrahydro-1H-pyrido[3,4-b]indole]	-7	65	69	97	–
CCC1c2c(c3cc(Cl)ccc3n2/C=C(\C)c2ccc(Cl)cc2)CCN1C (stereo not shown) [Compound 100, 6-chloro-9-(2-(4-chlorophenyl)prop-1-enyl)-1-ethyl-2-methyl-2,3,4,9-tetrahydro-1H-pyrido[3,4-b]indole]	-11	33	23	98	–
C#CCn1c2c(c3cc(Cl)ccc31)CCN(C)C2 [Compound 125, 6-chloro-2,3,4,9-tetrahydro-2-methyl-9-(prop-2-yn1)-1H-pyrido[3,4-b]indole]	19	83	66	–	74
CC1c2c(c3cc(Cl)ccc3n2C#Cc2ccc(F)cc2)CCN1C (stereo not shown) [Compound 128]	14	32	90	101	–
CCC1c2c(c3cc(Cl)ccc3n2C#Cc2ccc(F)cc2)CCN1C (stereo not shown) [Compound 129]	-8	8	22	107	–
CC1c2c(c3cc(Cl)ccc3n2C#Cc2ccc(Cl)cc2)CCN1C (stereo not shown) [Compound 132, 6-chloro-9-((4-chlorophenyl)ethynyl)-1,2-dimethyl-2,3,4,9-tetrahydro-1H-pyrido[3,4-b]indole]	-6	14	17	94	–
CCC1c2c(c3cc(C)ccc3n2C(=O)Cc2ccc(F)cc2)CCN1C (stereo not shown) [Compound 159]	-9	5	46	103	–
CCC1c2c(c3cc(C)ccc3n2/C=C(\C)c2ccc(Cl)cc2)CCN1C (stereo not shown) [Compound 160, 9-(2-(4-chlorophenyl)prop-1-enyl)-1-ethyl-2,6-dimethyl-2,3,4,9-tetrahydro-1H-pyrido[3,4-b]indole]	-1	31	24	103	–
C/C(=C\n1c2c(c3cc(C)ccc31)CCN(C)C2C)c1ccc(Cl)cc1 (stereo not shown) [Compound 161, 9-(2-(4-chlorophenyl)prop-1-enyl)-1,2,6-trimethyl-2,3,4,9-tetrahydro-1H-pyrido[3,4-b]indole]	0	51	75	99	–
CCC1c2c(c3cc(C)ccc3n2C#Cc2ccc(Cl)cc2)CCN1C (stereo not shown) [Compound 162, 9-((4-chlorophenyl)ethynyl)-1-ethyl-2,6-dimethyl-2,3,4,9-tetrahydro-1H-pyrido[3,4-b]indole]	4	15	12	101	–
Cc1ccc2c(c1)c1c(n2C(=O)Cc2ccc(Cl)cc2)C(c2ccccc2)N(C)CC1 (stereo not shown) [Compound 163]	-12	13	89	96	–
C/C(=C\n1c2c(c3cc(C)ccc31)CCN(C)C2c1ccccc1)c1ccc(Cl)cc1 (stereo not shown) [Compound 164, 9-(2-(4-chlorophenyl)prop-1-enyl)-2,6-dimethyl-1-phenyl-2,3,4,9-tetrahydro-1H-pyrido[3,4-b]indole]	-2	12	16	98	–
C/C(=C/n1c2c(c3cc(C)ccc31)CCN(C)C2C)c1ccccc1F (stereo not shown) [Compound 165]	6	21	46	93	–
